# Reference: PubChem BioAssay AID1259407 (Chemical Carcinogenesis Research Information System (CCRIS), 2018)
# Activity calls are given as the source filed them. No rule for the calls is given here.
# System: CCRIS mutagenicity, Ames/micronucleus/aberration tests
# Assay: CCRIS mutagenicity studies
# [1] = Test System: AMES SALMONELLA TYPHIMURIUM, Strain/Indicator: TA98, Metabolic Activation: NONE, Method: STANDARD PLATE
# [2] = Test System: AMES SALMONELLA TYPHIMURIUM, Strain/Indicator: TA98, Metabolic Activation: RAT, LIVER, S-9, AROCLOR 1254, Method: STANDARD PLATE
# [3] = Test System: AMES SALMONELLA TYPHIMURIUM, Strain/Indicator: TA100, Metabolic Activation: NONE, Method: STANDARD PLATE
# [4] = Test System: AMES SALMONELLA TYPHIMURIUM, Strain/Indicator: TA100, Metabolic Activation: RAT, LIVER, S-9, AROCLOR 1254, Method: STANDARD PLATE
smiles,measurement,setting,value
Oc1ccc(Cl)cc1,mutagenic call,"Test System: AMES SALMONELLA TYPHIMURIUM, Strain/Indicator: TA97, Metabolic Activation: NONE, Method: STANDARD PLATE",inactive; negative
same,mutagenic call,"Test System: AMES SALMONELLA TYPHIMURIUM, Strain/Indicator: TA97, Metabolic Activation: RAT, LIVER, S-9, AROCLOR 1254, Method: STANDARD PLATE",active; positive
same,mutagenic call,[1],inactive; negative
same,mutagenic call,[2],active; positive
same,mutagenic call,"Test System: AMES SALMONELLA TYPHIMURIUM, Strain/Indicator: TA98, Metabolic Activation: S-9, Method: STANDARD PLATE",active; positive
same,mutagenic call,[3],inactive; negative
same,mutagenic call,[4],active; positive
same,mutagenic call,"Test System: AMES SALMONELLA TYPHIMURIUM, Strain/Indicator: TA100, Metabolic Activation: S-9, Method: STANDARD PLATE",inactive; negative
same,mutagenic call,"Test System: AMES SALMONELLA TYPHIMURIUM, Strain/Indicator: TA104, Metabolic Activation: NONE, Method: STANDARD PLATE",inactive; negative
same,mutagenic call,"Test System: AMES SALMONELLA TYPHIMURIUM, Strain/Indicator: TA104, Metabolic Activation: RAT, LIVER, S-9, AROCLOR 1254, Method: STANDARD PLATE",inactive; negative
Cl/C=C/C[N+]12CN3CN(CN(C3)C1)C2,mutagenic call,"Test System: AMES SALMONELLA TYPHIMURIUM, Strain/Indicator: TA97, Metabolic Activation: HAMSTER, LIVER, S-9, AROCLOR 1254 (5, 10 OR 30%), Method: PREINCUBATION",inactive; negative
same,mutagenic call,"Test System: AMES SALMONELLA TYPHIMURIUM, Strain/Indicator: TA97, Metabolic Activation: NONE, Method: PREINCUBATION",inactive; negative
same,mutagenic call,"Test System: AMES SALMONELLA TYPHIMURIUM, Strain/Indicator: TA97, Metabolic Activation: RAT, LIVER, S-9, AROCLOR 1254 (5, 10 OR 30%), Method: PREINCUBATION",inactive; negative
same,mutagenic call,"Test System: AMES SALMONELLA TYPHIMURIUM, Strain/Indicator: TA98, Metabolic Activation: HAMSTER, LIVER, S-9, AROCLOR 1254 (5 OR 30%), Method: PREINCUBATION",inactive; negative
same,mutagenic call,"Test System: AMES SALMONELLA TYPHIMURIUM, Strain/Indicator: TA98, Metabolic Activation: HAMSTER, LIVER, S-9, AROCLOR 1254 (10%), Method: PREINCUBATION",inactive; negative
same,mutagenic call,"Test System: AMES SALMONELLA TYPHIMURIUM, Strain/Indicator: TA98, Metabolic Activation: HAMSTER, LIVER, S-9, AROCLOR 1254, Method: STANDARD PLATE",inactive; negative
same,mutagenic call,"Test System: AMES SALMONELLA TYPHIMURIUM, Strain/Indicator: TA98, Metabolic Activation: NONE, Method: PREINCUBATION",active; positive
same,mutagenic call,[1],inactive; negative
same,mutagenic call,"Test System: AMES SALMONELLA TYPHIMURIUM, Strain/Indicator: TA98, Metabolic Activation: RAT, LIVER, S-9, AROCLOR 1254 (5 OR 30%), Method: PREINCUBATION",inactive; negative
same,mutagenic call,"Test System: AMES SALMONELLA TYPHIMURIUM, Strain/Indicator: TA98, Metabolic Activation: RAT, LIVER, S-9, AROCLOR 1254 (10%), Method: PREINCUBATION",inactive; negative
same,mutagenic call,[2],inactive; negative
same,mutagenic call,"Test System: AMES SALMONELLA TYPHIMURIUM, Strain/Indicator: TA100, Metabolic Activation: HAMSTER, LIVER, S-9, AROCLOR 1254 (5 OR 30%), Method: PREINCUBATION",inactive; negative
same,mutagenic call,"Test System: AMES SALMONELLA TYPHIMURIUM, Strain/Indicator: TA100, Metabolic Activation: HAMSTER, LIVER, S-9, AROCLOR 1254 (10%), Method: PREINCUBATION",inactive; negative
same,mutagenic call,"Test System: AMES SALMONELLA TYPHIMURIUM, Strain/Indicator: TA100, Metabolic Activation: HAMSTER, LIVER, S-9, AROCLOR 1254, Method: STANDARD PLATE",inactive; negative
same,mutagenic call,"Test System: AMES SALMONELLA TYPHIMURIUM, Strain/Indicator: TA100, Metabolic Activation: NONE, Method: PREINCUBATION",inactive; negative
same,mutagenic call,[3],inactive; negative
same,mutagenic call,"Test System: AMES SALMONELLA TYPHIMURIUM, Strain/Indicator: TA100, Metabolic Activation: RAT, LIVER, S-9, AROCLOR 1254 (5 OR 30%), Method: PREINCUBATION",inactive; negative
same,mutagenic call,"Test System: AMES SALMONELLA TYPHIMURIUM, Strain/Indicator: TA100, Metabolic Activation: RAT, LIVER, S-9, AROCLOR 1254 (10%), Method: PREINCUBATION",inactive; negative
same,mutagenic call,[4],inactive; negative
same,mutagenic call,"Test System: AMES SALMONELLA TYPHIMURIUM, Strain/Indicator: TA1535, Metabolic Activation: HAMSTER, LIVER, S-9, AROCLOR 1254 (10%), Method: PREINCUBATION",inactive; negative
same,mutagenic call,"Test System: AMES SALMONELLA TYPHIMURIUM, Strain/Indicator: TA1535, Metabolic Activation: HAMSTER, LIVER, S-9, AROCLOR 1254, Method: STANDARD PLATE",inactive; negative
same,mutagenic call,"Test System: AMES SALMONELLA TYPHIMURIUM, Strain/Indicator: TA1535, Metabolic Activation: NONE, Method: PREINCUBATION",inactive; negative
same,mutagenic call,"Test System: AMES SALMONELLA TYPHIMURIUM, Strain/Indicator: TA1535, Metabolic Activation: NONE, Method: STANDARD PLATE",inactive; negative
same,mutagenic call,"Test System: AMES SALMONELLA TYPHIMURIUM, Strain/Indicator: TA1535, Metabolic Activation: RAT, LIVER, S-9, AROCLOR 1254 (10%), Method: PREINCUBATION",inactive; negative
same,mutagenic call,"Test System: AMES SALMONELLA TYPHIMURIUM, Strain/Indicator: TA1535, Metabolic Activation: RAT, LIVER, S-9, AROCLOR 1254, Method: STANDARD PLATE",inactive; negative
same,mutagenic call,"Test System: AMES SALMONELLA TYPHIMURIUM, Strain/Indicator: TA1537, Metabolic Activation: HAMSTER, LIVER, S-9, AROCLOR 1254 (5, 10 OR 30%), Method: PREINCUBATION",inactive; negative
same,mutagenic call,"Test System: AMES SALMONELLA TYPHIMURIUM, Strain/Indicator: TA1537, Metabolic Activation: HAMSTER, LIVER, S-9, AROCLOR 1254, Method: STANDARD PLATE",inactive; negative
same,mutagenic call,"Test System: AMES SALMONELLA TYPHIMURIUM, Strain/Indicator: TA1537, Metabolic Activation: NONE, Method: STANDARD PLATE",inactive; negative
same,mutagenic call,"Test System: AMES SALMONELLA TYPHIMURIUM, Strain/Indicator: TA1537, Metabolic Activation: RAT, LIVER, S-9, AROCLOR 1254 (5, 10 OR 30%), Method: PREINCUBATION",inactive; negative
same,mutagenic call,"Test System: AMES SALMONELLA TYPHIMURIUM, Strain/Indicator: TA1537, Metabolic Activation: RAT, LIVER, S-9, AROCLOR 1254, Method: STANDARD PLATE",inactive; negative
same,mutagenic call,"Test System: AMES SALMONELLA TYPHIMURIUM, Strain/Indicator: TA1538, Metabolic Activation: HAMSTER, LIVER, S-9, AROCLOR 1254, Method: STANDARD PLATE",inactive; negative
same,mutagenic call,"Test System: AMES SALMONELLA TYPHIMURIUM, Strain/Indicator: TA1538, Metabolic Activation: NONE, Method: STANDARD PLATE",inactive; negative
same,mutagenic call,"Test System: AMES SALMONELLA TYPHIMURIUM, Strain/Indicator: TA1538, Metabolic Activation: RAT, LIVER, S-9, AROCLOR 1254, Method: STANDARD PLATE",inactive; negative
same,mutagenic call,"Test System: MOUSE LYMPHOMA, Strain/Indicator: L5178Y (TK+/TK-), Metabolic Activation: NONE, Method: SUSPENSION/PLATE",active; positive. reevaluation of results: positive
same,mutagenic call,"Test System: MOUSE LYMPHOMA, Strain/Indicator: L5178Y (TK+/TK-), Metabolic Activation: RAT, LIVER, S-9, AROCLOR 1254, Method: SUSPENSION/PLATE",active; positive. reevaluation of results: positive
